Assay results reported in ChEMBL document CHEMBL5678818, “Discovery of potent SOS1 inhibitors that block RAS activation via disruption of the RAS-SOS1 interaction” (Proc Natl Acad Sci U S A, 2019).

Assays:
[1] = tested on: Receptor-type tyrosine-protein kinase FLT3 (Homo sapiens), P36888 [UNDEFINED MUTATION]; assay: Inhibition of FLT3 ITD/D835V mutant (unknown origin) assessed as residual activity at 1000 nM by KINOMEscan analysis relative to control
[2] = biological target: T1, Mitogen-activated protein kinase kinase kinase kinase 2 (Homo sapiens) (UniProt Q12851); assay: Inhibition of MAP4K2 (unknown origin) assessed as residual activity at 100 nM by KINOMEscan analysis relative to control
T1 sequence (whole entry): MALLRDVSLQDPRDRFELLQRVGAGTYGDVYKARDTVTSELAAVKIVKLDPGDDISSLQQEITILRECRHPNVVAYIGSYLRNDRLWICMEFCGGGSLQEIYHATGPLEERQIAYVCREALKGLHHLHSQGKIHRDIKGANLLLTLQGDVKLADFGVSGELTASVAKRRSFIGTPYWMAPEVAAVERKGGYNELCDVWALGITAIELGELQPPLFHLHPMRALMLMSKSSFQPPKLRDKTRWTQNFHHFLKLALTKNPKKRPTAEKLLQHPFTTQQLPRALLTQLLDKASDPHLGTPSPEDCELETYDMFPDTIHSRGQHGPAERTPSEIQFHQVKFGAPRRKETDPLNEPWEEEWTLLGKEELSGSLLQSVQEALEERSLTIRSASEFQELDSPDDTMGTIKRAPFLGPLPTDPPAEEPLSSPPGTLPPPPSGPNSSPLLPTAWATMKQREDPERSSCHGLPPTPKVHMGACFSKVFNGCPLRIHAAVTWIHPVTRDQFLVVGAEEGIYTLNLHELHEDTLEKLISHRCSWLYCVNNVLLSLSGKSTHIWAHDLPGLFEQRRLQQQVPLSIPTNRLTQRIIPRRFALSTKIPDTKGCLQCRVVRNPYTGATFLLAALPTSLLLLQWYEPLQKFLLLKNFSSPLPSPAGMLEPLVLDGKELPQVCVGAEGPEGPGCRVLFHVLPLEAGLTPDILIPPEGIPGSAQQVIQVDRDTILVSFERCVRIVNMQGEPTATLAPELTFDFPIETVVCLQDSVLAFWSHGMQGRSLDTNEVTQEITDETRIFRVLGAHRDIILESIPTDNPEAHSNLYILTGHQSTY

Homo sapiens = species: Homo sapiens; assay: Inhibition of PIP5K1C (unknown origin) assessed as residual activity at 100 nM by KINOMEscan analysis relative to control
[3] = biological target: Serine/threonine-protein kinase 24 (Homo sapiens) (UniProt Q9Y6E0); assay: Inhibition of MST3 (unknown origin) assessed as residual activity at 100 nM by KINOMEscan analysis relative to control
[4] = biological target: Proto-oncogene tyrosine-protein kinase Src (Homo sapiens) (UniProt P12931); assay: Inhibition of SRC (unknown origin) assessed as residual activity at 100 nM by KINOMEscan analysis relative to control
[5] = tested on: Receptor-type tyrosine-protein kinase FLT3 (Homo sapiens), P36888 [D835H]; assay: Inhibition of FLT3 D835H mutant (unknown origin) assessed as residual activity at 100 nM by KINOMEscan analysis relative to control
[6] = biological target: Cyclin-dependent kinase 4/cyclin D1 (Homo sapiens) (UniProt P11802+P24385); assay: Inhibition of CDK4-cyclin D1 (unknown origin) assessed as residual activity at 100 nM by KINOMEscan analysis relative to control; assay type: protein-complex assay
[7] = biological target: Cyclin-dependent kinase 8 (Homo sapiens) (UniProt P49336); assay: Inhibition of CDK8 (unknown origin) assessed as residual activity at 100 nM by KINOMEscan analysis relative to control
[8] = biological target: Tyrosine-protein kinase CSK (Homo sapiens) (UniProt P41240); assay: Inhibition of CSK (unknown origin) assessed as residual activity at 100 nM by KINOMEscan analysis relative to control
[9] = biological target: T2, Calcium/calmodulin-dependent protein kinase type IV (Homo sapiens) (UniProt Q16566); assay: Inhibition of CAMK4 (unknown origin) assessed as residual activity at 100 nM by KINOMEscan analysis relative to control
T2 sequence (whole entry): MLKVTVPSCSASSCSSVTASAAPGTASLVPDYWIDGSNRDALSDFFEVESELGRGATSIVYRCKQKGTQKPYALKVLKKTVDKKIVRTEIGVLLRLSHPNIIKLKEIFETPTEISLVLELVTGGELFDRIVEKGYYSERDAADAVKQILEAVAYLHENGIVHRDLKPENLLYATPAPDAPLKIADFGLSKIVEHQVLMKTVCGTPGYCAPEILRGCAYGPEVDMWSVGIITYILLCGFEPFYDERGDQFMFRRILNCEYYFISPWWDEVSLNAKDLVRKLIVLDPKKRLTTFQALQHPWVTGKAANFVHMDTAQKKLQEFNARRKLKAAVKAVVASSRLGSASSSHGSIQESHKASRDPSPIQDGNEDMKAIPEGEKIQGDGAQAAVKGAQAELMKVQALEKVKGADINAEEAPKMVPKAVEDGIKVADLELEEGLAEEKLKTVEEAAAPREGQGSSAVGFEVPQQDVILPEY

[10] = biological target: T3, Serine/threonine-protein kinase DCLK3 (Homo sapiens) (UniProt Q9C098); assay: Inhibition of DCAMKL3 (unknown origin) assessed as residual activity at 100 nM by KINOMEscan analysis relative to control
T3 sequence (whole entry): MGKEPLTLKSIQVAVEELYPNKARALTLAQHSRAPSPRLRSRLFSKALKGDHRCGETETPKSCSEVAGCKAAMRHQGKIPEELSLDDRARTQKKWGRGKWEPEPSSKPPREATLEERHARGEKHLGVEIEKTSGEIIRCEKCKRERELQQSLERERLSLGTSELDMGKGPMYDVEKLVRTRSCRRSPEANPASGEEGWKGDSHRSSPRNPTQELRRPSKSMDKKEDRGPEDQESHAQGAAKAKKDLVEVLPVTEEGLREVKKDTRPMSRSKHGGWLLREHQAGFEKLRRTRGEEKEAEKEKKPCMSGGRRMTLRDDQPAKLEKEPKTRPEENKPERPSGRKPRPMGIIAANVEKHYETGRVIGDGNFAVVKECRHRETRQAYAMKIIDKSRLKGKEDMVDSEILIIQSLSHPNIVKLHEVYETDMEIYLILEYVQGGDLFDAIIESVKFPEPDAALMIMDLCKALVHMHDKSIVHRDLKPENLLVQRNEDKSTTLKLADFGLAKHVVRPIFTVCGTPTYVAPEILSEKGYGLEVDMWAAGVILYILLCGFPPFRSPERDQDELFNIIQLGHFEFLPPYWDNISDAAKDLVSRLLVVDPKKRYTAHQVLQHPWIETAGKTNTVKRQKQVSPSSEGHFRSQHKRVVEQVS

Chain of Cyclin-dependent kinase 8 (Homo sapiens) (P49336 whole entry): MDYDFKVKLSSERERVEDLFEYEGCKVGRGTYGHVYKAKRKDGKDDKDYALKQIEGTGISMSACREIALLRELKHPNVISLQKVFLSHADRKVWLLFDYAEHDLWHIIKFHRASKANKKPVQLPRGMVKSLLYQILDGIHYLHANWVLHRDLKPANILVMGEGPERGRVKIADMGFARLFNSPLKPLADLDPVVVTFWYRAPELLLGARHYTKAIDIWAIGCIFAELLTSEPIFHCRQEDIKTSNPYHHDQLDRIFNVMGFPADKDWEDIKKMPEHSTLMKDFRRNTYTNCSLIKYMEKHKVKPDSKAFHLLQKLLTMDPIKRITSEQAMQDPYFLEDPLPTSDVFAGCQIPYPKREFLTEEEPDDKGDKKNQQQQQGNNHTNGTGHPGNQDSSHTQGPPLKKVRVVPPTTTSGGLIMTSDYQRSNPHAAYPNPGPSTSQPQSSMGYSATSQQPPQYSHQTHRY
Chain of Tyrosine-protein kinase CSK (Homo sapiens) (P41240 2-450 limits assumed): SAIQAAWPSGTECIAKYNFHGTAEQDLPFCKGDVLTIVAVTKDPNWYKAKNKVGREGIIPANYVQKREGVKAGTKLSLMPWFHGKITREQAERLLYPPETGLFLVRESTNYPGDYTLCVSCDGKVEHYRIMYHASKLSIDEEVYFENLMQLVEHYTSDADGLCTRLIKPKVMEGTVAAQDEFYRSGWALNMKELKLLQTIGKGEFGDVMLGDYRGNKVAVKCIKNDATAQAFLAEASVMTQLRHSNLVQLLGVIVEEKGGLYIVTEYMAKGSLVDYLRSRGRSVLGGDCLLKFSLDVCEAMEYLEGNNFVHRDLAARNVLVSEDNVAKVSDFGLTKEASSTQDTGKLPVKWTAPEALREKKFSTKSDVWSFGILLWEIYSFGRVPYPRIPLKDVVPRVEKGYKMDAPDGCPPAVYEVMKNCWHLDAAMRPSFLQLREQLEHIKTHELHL
Chain of Proto-oncogene tyrosine-protein kinase Src (Homo sapiens) (P12931 2-536 limits assumed): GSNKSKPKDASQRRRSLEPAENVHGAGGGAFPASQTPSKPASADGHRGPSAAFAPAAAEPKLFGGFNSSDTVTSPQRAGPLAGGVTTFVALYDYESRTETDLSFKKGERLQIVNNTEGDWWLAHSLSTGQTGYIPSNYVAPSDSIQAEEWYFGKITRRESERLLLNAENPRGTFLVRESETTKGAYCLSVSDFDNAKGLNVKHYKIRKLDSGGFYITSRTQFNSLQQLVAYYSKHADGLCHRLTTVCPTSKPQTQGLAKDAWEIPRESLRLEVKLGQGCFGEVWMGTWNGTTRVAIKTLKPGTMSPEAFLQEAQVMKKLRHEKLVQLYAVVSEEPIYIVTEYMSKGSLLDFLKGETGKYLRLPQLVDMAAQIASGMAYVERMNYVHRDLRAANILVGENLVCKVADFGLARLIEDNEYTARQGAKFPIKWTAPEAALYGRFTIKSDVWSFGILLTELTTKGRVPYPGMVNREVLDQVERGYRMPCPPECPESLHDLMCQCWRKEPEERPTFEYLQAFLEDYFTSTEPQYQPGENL
Chain of Serine/threonine-protein kinase 24 (Homo sapiens) (Q9Y6E0 whole entry, looked up): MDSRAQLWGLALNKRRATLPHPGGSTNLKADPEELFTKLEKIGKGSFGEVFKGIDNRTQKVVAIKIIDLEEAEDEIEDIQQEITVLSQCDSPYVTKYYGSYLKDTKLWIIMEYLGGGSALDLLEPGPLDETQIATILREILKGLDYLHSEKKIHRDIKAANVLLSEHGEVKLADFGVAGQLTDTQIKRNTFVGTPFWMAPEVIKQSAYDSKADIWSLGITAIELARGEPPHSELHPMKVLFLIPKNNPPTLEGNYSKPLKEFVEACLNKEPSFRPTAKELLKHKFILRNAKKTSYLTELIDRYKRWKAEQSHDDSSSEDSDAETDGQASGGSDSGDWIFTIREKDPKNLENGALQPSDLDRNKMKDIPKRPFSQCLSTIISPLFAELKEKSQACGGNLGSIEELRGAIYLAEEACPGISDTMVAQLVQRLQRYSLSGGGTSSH

Structure (SMILES) | Activity [1] | Activity [2] | Activity (Homo sapiens) | Activity [3] | Activity [4] | Activity [5] | Activity [6] | Activity [7] | Activity [8] | Activity [9] | Activity [10]
COc1cc2nc(C)nc(N[C@H](C)c3cccc(-c4cn[nH]c4)c3)c2cc1OC | 100% | – | – | – | – | – | – | – | – | – | –
COc1cc2ncnc(N[C@H](C)c3cccc4ccccc34)c2cc1OC | – | 83% | 63% | 99% | 90% | 92% | 92% | 91% | 90% | 100% | 84%
